The values below come from article PMC9283466, “In silico identification of two peptides with antibacterial activity against multidrug-resistant Staphylococcus aureus” (NPJ Biofilms and Microbiomes, 2022).

In brackets after ≈: the same amount, converted by molar mass. Bridge positions count the residues as written; N and C are the ends. Peptide text beside a SMILES is read from it.

One test relates to K. pneumoniae 518842. Description: microbe, parasite or virus in culture. It counts as cell-based, Klebsiella pneumoniae. Conditions: 518842. On the procedure:
(§1) To determine the antimicrobial activity of the new antimicrobial peptides, HG2 and HG4, their minimum inhibitory concentrations (MICs) were determined by broth microdilution method[51] in cation adjusted Mueller Hinton broth (MHB) following the International Organisation for Standardisation (ISO) 20776-1 standard for MIC testing using a final bacterial inoculum of 5 × 10^5 CFU/ml[52]. […] The peptides dissolved in sterile distilled water were added to bacteria culture and incubated overnight at appropriate conditions. The MICs of the peptides and comparator antibiotics were recorded after 18–24 h. The minimum bactericidal concentrations (MBCs) were also determined and were taken as the lowest concentration of the antimicrobial that prevented the growth of bacterial cells after the subculture of cells (from MIC treatment) onto antibiotic-free media.

For another test, the system named is K. pneumoniae 526903. Description: microbe, parasite or virus in culture. Particulars: 526903. In kind it is cell-based, Klebsiella pneumoniae. On the procedure:
as §1

The test system of test [1] is K. pneumoniae ATCC 700603. Description: microbe, parasite or virus in culture. Particulars: ATCC 700603. It counts as cell-based, Klebsiella pneumoniae. The method, then:
as §1

The test system of the next test is K. pneumoniae NCTC 13442. The test can be described thus: microbe, parasite or virus in culture. It counts as cell-based, Klebsiella pneumoniae. Conditions: NCTC 13442. The method, then: as §1
The subject of another test is E. coli K12. The test can be described thus: microbe, parasite or virus in culture. It counts as cell-based, Escherichia coli. Conditions: K12. The method, then:
as §1

A further test deals with MRSA USA300 cells. Description: ATP depletion assay. In kind it is cell-based, Staphylococcus aureus. Particulars: P = 0.018 (HG2) and 0.003 (HG4). On the procedure: Adenosine triphosphate (ATP) drives many cellular and metabolic processes and can be used to ascertain the integrity of cells. […] Briefly, in a clear 96-well plate, samples and ATP standard provided with the kit were added in a reaction mix containing ATP assay buffer, ATP Probe and Converter and Developer mix. The reaction mix was incubated in the dark at room temperature for 30 min. Absorbance (570 nm0 was then measured in a microplate spectrophotometer. The background ATP levels obtained from samples and ATP standards were autocorrected by subtracting ATP levels from blank treatments. The amount of ATP in unknown samples was determined from the ATP standard curve and calculated using the formula in the instruction manual. All measurements were performed in triplicates.

Test [2] deals with MRSA USA300 cytoplasmic membrane. It counts as cell-based, Staphylococcus aureus. Conditions: for EC50 of membrane permeabilisation: USA300, 3 h. On the procedure:
Permeabilisation of the bacterial cytoplasmic membrane by HG2 and HG4 peptide was evaluated using the cell-impermeable DNA probe propidium iodide[14],[40]. Logarithmic-phase bacterial suspension of MRSA USA300 was prepared by diluting overnight cultures in fresh MHB (1 in 10 dilutions), incubated (3 h; 37 °C; 200 rpm), and pelleted by centrifugation (5 min; 3000×g). The bacterial cell pellet was then resuspended in sterile PBS at ~10^9 bacteria/ml. Propidium iodide (at 1 mg/ml, Sigma-Aldrich) was added to the bacterial suspension at a final concentration of 60 µM. This suspension (100 µl) was then transferred into black 96-well plates already containing 100 µl of serially diluted HG2 or HG4 peptide in PBS. Kinetics of fluorescence variations (excitation at 530 nm/emission at 590 nm) were then recorded using a microplate reader for a duration of 80 min with incubation at 37 °C. Cetyl trimethylammonium bromide (CTAB) (at 300 µM) served as positive control giving 100% permeabilisation. The permeabilisation effect of HG2 and HG4 were expressed as a percentage of total permeabilisation.

The subject of test [3] is LPS-driven NF-kB activation, eLUCidate Raw 264.7 NF-kB reporter cell line. The test can be described thus: Anti-inflammatory activity, NF-kB luciferase reporter. In kind it is cell-based, murine. Particulars: 10 ng/ml LPS from E. coli, 6 h. The method, then:
(§2) The inhibitory activity of HG2, HG4 and comparator compounds against LPS and LTA was assessed using eLUCidate™ Raw 264.7 NF-kB reporter cell line (AMSBIO) as previously described. The eLUCidate NF-kB reporter cell line is a stably transfected Raw 264.7 cell line which expresses the Renilla luciferase reporter gene under the transcriptional control of the NF-kB response element, a key transcription factor involved in immune and inflammatory responses. This reporter cell line has been used to measure the induction of various toll-like receptors (TLR) by ligands, including LPS and LTA, therefore providing an effective way to evaluate inhibitors of their activations. Briefly, cells were grown and maintained following the manufacturer’s instructions in Dulbecco’s modified essential medium (DMEM) supplemented with 10% fetal calf serum (FCS), 1% L-glutamine, 1% antibiotics (Invitrogen) and containing 3 µg/ml of puromycin (Sigma-Aldrich, UK). To test the inhibitory activity of HG2 and HG4 on LPS or LTA-driven NF-kB activation, eLUCidate™ Raw 264.7 cells grown on 75 cm^2 flasks were detached using trypsin-EDTA solution (Thermofisher, UK) and seeded into 96-well cell culture plates (Greiner Bio-one, UK) at ~25,000 cells per well (counted using Mallasez’s chamber). The next day, wells were emptied, and cells were exposed to optimal concentrations of LPS or LTA determined from preliminary experiments, (i.e. 10 ng/ml of LPS from E. coli or 10 µg/ml of LTA from S. aureus (Invivogen, UK)) in the presence of increasing concentrations of HG2 or HG4 (from 0 to 500 µg/ml, serial 1:2 dilutions). Pyrrolidine dithiocarbamate (PDTC, 100 µM) and polymyxin B (PMB, 100 µM) (Sigma-Aldrich, UK) were used as positive controls based on their well-known activity as anti-inflammatory molecules and blockers/neutralisers of LPS and LTA, respectively. Importantly, all steps were performed using non-pyrogenic plastics and RNase/DNase molecular biology tips to limit the risk of the presence of a trace of LPS/LTA. After 6 h incubation at 37 °C and 5% CO2, wells were emptied, and the cells were treated with 70 µl of ice-cold PBS containing 1% Triton X-100. After 10 min incubation on ice under orbital shaking at 200 rpm, 50 µL of cell lysates were collected and transferred into white 96-well luminescence plates (Dominique Dutscher) already containing 100 µL of Renilla luciferase substrate (Yelen, France). Luminescence signals of the wells were immediately measured using a microplate reader (Biotek Synergy Mx, UK). The luminescence values were expressed as a percentage of control inflammation corresponding to values obtained after treatment with LPS or LTA in the absence of an inhibitor. The IC50 values of PDTC, PMB, HG2 or HG4 on LPS or LTA-mediated inflammation (i.e. the concentration of molecule causing a reduction of 50% of the luciferase’s induction caused by LPS or LTA) were calculated using GraphPad® Prism 7 software.
On the technique in general: In a reporter assay the amount or activity of a reporter protein is the signal.

For test [4], the system named is LTA-driven NF-kB activation, eLUCidate Raw 264.7 NF-kB reporter cell line. Described as above. It counts as cell-based, murine. Conditions: 10 µg/ml LTA from S. aureus, 6 h. The method, then:
as §2

As for `CC[C@H](C)[C@H](NC(=O)[C@H](CC(C)C)NC(=O)[C@H](CC(C)C)NC(=O)[C@H](CC(C)C)NC(=O)[C@H](CCCCN)NC(=O)[C@H](CCCCN)NC(=O)[C@@H](N)CCSC)C(=O)N[C@@H](CC(C)C)C(=O)N[C@@H](Cc1ccccc1)C(=O)N[C@H]1CSSC[C@@H](C(=O)N[C@@H](CCCCN)C(=O)N[C@@H](CCCCN)C(=O)N[C@@H](C)C(=O)N2CCC[C@H]2C(N)=O)NC(=O)CNC(=O)[C@H](C)NC(=O)[C@H](CC(C)C)NC(=O)[C@H](C)NC(=O)[C@H](CC(C)C)NC(=O)[C@H](C)NC(=O)[C@H](CC(C)C)NC1=O` [HG2] (H-MKKLLLILFCLALALAGCKKAP-NH2; disulfide 10-18; N-terminus assumed), the MIC against K. pneumoniae 518842 was 512 µg/mL (≈ 217 µM); against K. pneumoniae 526903 it was more than 512 µg/mL; in test [1] it was more than 512 µg/mL; with K. pneumoniae NCTC 13442, 512 µg/mL (≈ 217 µM); in the test on E. coli K12 it was 256 µg/mL (≈ 109 µM). Moreover, the “effect on ATP concentration” value with MRSA USA300 cells is given as “decrease in ATP concentration”. Moreover, the “EC50 of membrane permeabilisation” value in test [2] is 1.351 ± 0.27 µg/mL. Further, the “permeabilisation at 1 min” value in [2] (at MIC concentration) was 80%. Moreover, the “IC50, LPS-mediated inflammation” value in test [3] came to 73.99 ± 3.40 µg/mL. Besides, the “IC50, LTA-mediated inflammation” value in [4] turned out to be 91.49 ± 6.03 µg/mL.

Turning to `CC[C@H](C)[C@H](NC(=O)[C@H](CC(C)C)NC(=O)[C@H](CC(C)C)NC(=O)[C@H](C)NC(=O)CNC(=O)CNC(=O)[C@@H](NC(=O)[C@@H](NC(=O)[C@H](CC(C)C)NC(=O)[C@H](C)NC(=O)[C@H](CC(C)C)NC(=O)CNC(=O)[C@H](CC(C)C)NC(=O)[C@@H](N)C(C)C)[C@@H](C)CC)C(C)C)C(=O)N[C@@H](CCCCN)C(=O)N[C@@H](CCCCN)C(=O)N[C@@H](CCCCN)C(=O)N[C@@H](CCC(N)=O)C(=O)N[C@@H](C)C(=O)N[C@@H](CCCCN)C(=O)N[C@@H](CO)C(N)=O` [HG4] (H-VLGLALIVGGALLIKKKQAKS-NH2; N-terminus and C-terminus assumed), the MIC against K. pneumoniae 518842 is 512 µg/mL (≈ 242 µM); with K. pneumoniae 526903 it was 512 µg/mL (≈ 242 µM); in test [1], more than 512 µg/mL; in the test on K. pneumoniae NCTC 13442, 512 µg/mL (≈ 242 µM); with E. coli K12, 512 µg/mL (≈ 242 µM). Moreover, in the test with MRSA USA300 cells, the “effect on ATP concentration” value is “decrease in ATP concentration”. Also, the “EC50 of membrane permeabilisation” value in test [2] was 13.85 ± 3.22 µg/mL. In test [3], the “IC50, LPS-mediated inflammation” value is 113.80 ± 5.00 µg/mL. For the same compound, the “IC50, LTA-mediated inflammation” value in test [4] was determined as 26.45 ± 3.11 µg/mL.
